According to patent US11590139B2, “Substituted aminopurine compounds, compositions thereof, and methods of treatment therewith” (Signal Pharmaceuticals, LLC, priority 2014, dated 2023):

The compounds below were run on Lox-IMVI melanoma cell line (assay: Lox-IMVI anti-proliferative assay (growth inhibition, Cell Titer-Glo)). Details: Homo sapiens; IC50 activity level in the cell-based Lox-IMVI anti-proliferative assay; read-out: Activity.
Format: cell-based, human
Method in brief: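 Luminescence from cellular ATP measured viability at compound addition and again after 72 h of exposure (37 °C, 5% CO2, RPMI + 10% FBS). Doses spanned 0.5 nM to 10 μM in ten 3-fold steps with 0.2% DMSO. Values were fitted as % of DMSO-treated cells by sigmoidal dose-response.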
`NC(=O)[C@H]1CC[C@@H](n2c(Nc3c(Cl)cc(F)cc3Cl)nc3cnc(N[C@@H]4COC[C@H]4O)nc32)CC1` [Example 315, (1S,4s)-4-(8-(2,6-dichloro-4-fluorophenylamino)-2-((3R,4S)-4-hydroxytetrahydrofuran-3-ylamino)-9H-purin-9-yl)cyclohexanecarboxamide] was tested, and the IC50 was > 1 µM.
In the case of `NC(=O)[C@H]1CC[C@@H](n2c(Nc3c(F)cccc3F)nc3cnc(NC4CC5(COC5)C4)nc32)CC1` [Example 173, (1s,4s)-4-(2-(2-oxaspiro[3.3]heptan-6-ylamino)-8-(2,6-difluorophenylamino)-9H-purin-9-yl)cyclohexanecarboxamide], the IC50 is reported as > 1 µM.
For `CC[C@@H](CO)Nc1ncc2nc(Nc3cccc(Cl)c3F)n([C@H]3CC[C@@H](C(N)=O)CC3)c2n1` [Example 150, (1R,4s)-4-(8-(3-chloro-2-fluorophenylamino)-2-((S)-1_ hydroxybutan-2-ylamino)-9H-purin-9-yl)cyclohexanecarboxamide], the IC50 was > 1 µM.
In the case of `CC(C)Nc1ncc2nc(Nc3c(Cl)cccc3Cl)n([C@H]3CC[C@@H](C(N)=O)CC3)c2n1` [Example 52], the IC50 is reported as > 1 µM.
With `C[C@@H]1CC[C@@H](Nc2ncc3nc(Nc4c(Cl)cc(F)cc4Cl)n([C@H]4CC[C@@H](C(N)=O)CC4)c3n2)C[C@H]1O` [Example 355, (1S,4s)-4-(8-(2,6-dichloro-4-fluorophenylamino)-2-((1R,3R,4R)-3-hydroxy-4-methylcyclohexylamino)-9H-purin-9-yl)cyclohexanecarboxamide] the IC50 was > 1 µM.
`NC(=O)[C@H]1CC[C@@H](n2c(Nc3c(F)cc(Cl)cc3Cl)nc3cnc(N[C@@H]4COC[C@H]4O)nc32)CC1` [Example 314, (1S,4s)-4-(8-(2,4-dichloro-6-fluorophenylamino)-2-((3R,4S)-4-hydroxytetrahydrofuran-3-ylamino)-9H-purin-9-yl)cyclohexanecarboxamide] was tested, and the IC50 was > 1 µM.
`NC(=O)[C@H]1CC[C@@H](n2c(Nc3c(Cl)cc(F)cc3Cl)nc3cnc(N[C@H]4CCC[C@@H]4O)nc32)CC1` [Example 272, (1R,4s)-4-(8-(2,6-dichloro-4-fluorophenylamino)-2-((1S,2S)-2-hydroxycyclopentylamino)-9H-purin-9-yl)cyclohexanecarboxamide] was tested, and the IC50 was > 1 µM.

Same assay, conditions: Homo sapiens; Lox-IMVI anti-proliferative assay, IC50 activity level; read-out: Activity
For `N#Cc1ccc(Cl)c(Nc2nc3cnc(NC4CCOCC4)nc3n2[C@H]2CC[C@@H](C(N)=O)CC2)c1Cl` [Example 443, (1s,4s)-4-(8-(2,6-dichloro-3-cyanophenylamino)-2-(tetrahydro-2H-pyran-4-ylamino)-9H-purin-9-yl)cyclohexanecarboxamide], the IC50 was > 1 µM.
With `C[C@]1(C(N)=O)CC[C@@H](n2c(Nc3c(F)cc(F)cc3Cl)nc3cnc(NC4CCCC4)nc32)CC1` [Example 558, (1s,4s)-4-(8-(2-chloro-4,6-difluorophenylamino)-2-(cyclopentylamino)-9H-purin-9-yl)-1-methylcyclohexanecarboxamide] the IC50 was < 0.25 µM.
For `NC(=O)[C@H]1CC[C@@H](n2c(Nc3c(Cl)cc(Cl)cc3Cl)nc3cnc(N[C@H]4CCCC[C@H]4O)nc32)CC1` [Example 514, (1R,4s)-4-(2-((1S,2R)-2-hydroxycyclohexylamino)-8-(2,4,6-trichlorophenylamino)-9H-purin-9-yl)cyclohexanecarboxamide], the IC50 was > 1 µM.
In the case of `NC(=O)[C@H]1CC[C@@H](n2c(Nc3c(F)cc(Cl)cc3Cl)nc3cnc(N[C@@H]4CCC(F)(F)C4)nc32)CC1` [Example 592, (1S,4s)-4-(8-(2,4-dichloro-6-fluorophenylamino)-2-((R)-3,3-difluorocyclopentylamino)-9H-purin-9-yl)cyclohexanecarboxamide], the IC50 is reported as < 0.25 µM.
Compound `C[C@]1(C(N)=O)CC[C@@H](n2c(Nc3c(Cl)cc(Cl)cc3Cl)nc3cnc(NC4CC(F)(F)C4)nc32)CC1` [Example 580, (1s,4s)-4-(2-(3,3-difluorocyclobutylamino)-8-(2,4,6-trichlorophenylamino)-9H-purin-9-yl)-1-methylcyclohexanecarboxamide] has an IC50 of 0.25 to 0.5 µM.
`C[C@]1(C(N)=O)CC[C@@H](n2c(Nc3c(F)cc(C#N)cc3F)nc3cnc(NC4CCOCC4)nc32)CC1` [Example 524, (1s,4s)-4-(8-(4-cyano-2,6-difluorophenylamino)-2-(tetrahydro-2H-pyran-4-ylamino)-9H-purin-9-yl)-1-methylcyclohexanecarboxamide] was tested, and the IC50 was < 0.25 µM.
In the case of `NC(=O)[C@H]1CC[C@@H](n2c(Nc3c(F)cc(F)cc3F)nc3cnc(N[C@@H]4CCCC[C@H](O)C4)nc32)CC1` [Example 434, (1S,4s)-4-(2-((1R,3S)-3-hydroxycycloheptylamino)-8-(2,4,6-trifluorophenylamino)-9H-purin-9-yl)cyclohexanecarboxamide], the IC50 is reported as > 1 µM.
With `C[C@@H](CO)Nc1ncc2nc(Nc3c(F)cc(F)cc3F)n([C@H]3CC[C@@](C)(C(N)=O)CC3)c2n1` [Example 546, (1R,4s)-4-(2-((S)-1-hydroxypropan-2-ylamino)-8-(2,4,6-trifluorophenylamino)-9H-purin-9-yl)-1-methylcyclohexanecarboxamide] the IC50 was 0.25 to 0.5 µM.

Same assay, conditions: Homo sapiens; Lox-IMVI melanoma cell line, anti-proliferative assay; read-out: Activity (IC50 activity level)
In the case of `N#Cc1ccc(Nc2nc3cnc(NC4CCCC4)nc3n2[C@H]2CC[C@@H](C(N)=O)CC2)c(Cl)c1Cl` [Example 693, (1s,4s)-4-(2-(cyclopentylamino)-8-(2,3-dichloro-4-cyanophenylamino)-9H-purin-9-yl)cyclohexanecarboxamide], the IC50 is reported as > 1 µM.
With `C[C@]1(C(N)=O)CC[C@@H](n2c(Nc3c(F)cc(F)cc3F)nc3cnc(N[C@H]4CC[C@H](O)C4)nc32)CC1` [Example 643, (1R,4s)-4-(2-((1S,3S)-3-hydroxycyclopentylamino)-8-(2,4,6-trifluorophenylamino)-9H-purin-9-yl)-1-methylcyclohexanecarboxamide] the IC50 was 0.5 to 1 µM.
In the case of `C[C@]1(C(N)=O)CC[C@@H](n2c(Nc3c(F)cc(Cl)cc3F)nc3cnc(N[C@H]4CCC[C@H](O)C4)nc32)CC1` [Example 614, (1R,4s)-4-(8-(4-chloro-2,6-difluorophenylamino)-2-((1S,3S)-3-hydroxycyclohexylamino)-9H-purin-9-yl)-1-methylcyclohexanecarboxamide], the IC50 is reported as < 0.25 µM.
For `NC(=O)[C@H]1CC[C@@H](n2c(Nc3c(F)cc(Cl)cc3F)nc3cnc(N[C@H]4CCOC[C@H]4F)nc32)CC1` [Example 672, (1R,4s)-4-(8-(4-chloro-2,6-difluorophenylamino)-2-((3S,4S)-3-fluorotetrahydro-2H-pyran-4-ylamino)-9H-purin-9-yl)cyclohexanecarboxamide], the IC50 was < 0.25 µM.
With `NC(=O)[C@H]1CC[C@@H](n2c(Nc3c(F)cc(Cl)cc3Cl)nc3cnc(N[C@@H]4CCCN(C(=O)Nc5ccccc5)C4)nc32)CC1` [Example 783, (R)-3-(9-((1s,4S)-4-carbamoylcyclohexyl)-8-(2,4-dichloro-6-fluorophenylamino)-9H-purin-2-ylamino)-N-phenylpiperidine-1-carboxamide] the IC50 was > 1 µM.
Compound `C[C@]1(C(N)=O)CC[C@@H](n2c(Nc3c(F)cc(F)cc3F)nc3cnc(N[C@H]4CCC[C@H](O)C4)nc32)CC1` [Example 609, (1R,4s)-4-(2-((1S,3S)-3-hydroxycyclohexylamino)-8-(2,4,6-trifluorophenylamino)-9H-purin-9-yl)-1-methylcyclohexanecarboxamide] has an IC50 of 0.25 to 0.5 µM.
With `CCN1CCC[C@@H](Nc2ncc3nc(Nc4c(F)cc(Cl)cc4Cl)n([C@H]4CC[C@@H](C(N)=O)CC4)c3n2)C1` [Example 734, (1S,4s)-4-(8-(2,4-dichloro-6-fluorophenylamino)-2-((R)-1-ethylpiperidin-3-ylamino)-9H-purin-9-yl)cyclohexanecarboxamide] the IC50 was > 1 µM.
With `C[C@]1(C(N)=O)CC[C@@H](n2c(Nc3c(F)cc(Cl)cc3Cl)nc3cnc(NC4CCC4)nc32)CC1` [Example 605, (1s,4s)-4-(2-(cyclobutylamino)-8-(2,4-dichloro-6-fluorophenylamino)-9H-purin-9-yl)-1-methylcyclohexanecarboxamide] the IC50 was < 0.25 µM.
With `C[C@]1(C(N)=O)CC[C@@H](n2c(Nc3c(F)cc(Cl)cc3Cl)nc3cnc(N[C@@H]4CCOC[C@H]4F)nc32)CC1` [Example 726, (1S,4s)-4-(8-(2,4-dichloro-6-fluorophenylamino)-2-((3S,4R)-3-fluorotetrahydro-2H-pyran-4-ylamino)-9H-purin-9-yl)-1-methylcyclohexanecarboxamide] the IC50 was < 0.25 µM.
With `CS(=O)(=O)C1CC(Nc2ncc3nc(Nc4c(Cl)cc(Cl)cc4Cl)n([C@H]4CC[C@@H](C(N)=O)CC4)c3n2)C1` (stereo partly shown) [Example 729, (1s,4s)-4-(2-(3-(methylsulfonyl)cyclobutylamino)-8-(2,4,6-trichlorophenylamino)-9H-purin-9-yl)cyclohexanecarboxamide] the IC50 was > 1 µM.
`N#Cc1cc(Cl)c(Nc2nc3cnc(NC4CCC(N5C(=O)CCC5=O)CC4)nc3n2[C@H]2CC[C@@H](C(N)=O)CC2)c(Cl)c1` (stereo partly shown) [Example 668, (1s,4s)-4-(8-(2,6-dichloro-4-cyanophenylamino)-2-(4-(2,5-dioxopyrrolidin-1-yl)cyclohexylamino)-9H-purin-9-yl)cyclohexanecarboxamide] was tested, and the IC50 was > 1 µM.
`CS(=O)(=O)N1CCC[C@@H](Nc2ncc3nc(Nc4c(Cl)cc(Cl)cc4Cl)n([C@H]4CC[C@@H](C(N)=O)CC4)c3n2)C1` [Example 700, (1S,4s)-4-(2-((R)-1-(methylsulfonyl)piperidin-3-ylamino)-8-(2,4,6-trichlorophenylamino)-9H-purin-9-yl)cyclohexanecarboxamide] showed an IC50 of 0.5 to 1 µM.
For `NC(=O)[C@H]1CC[C@@H](n2c(Nc3c(F)cc(Cl)cc3F)nc3cnc(N[C@@H]4CCOC[C@H]4F)nc32)CC1` [Example 671, (1S,4s)-4-(8-(4-chloro-2,6-difluorophenylamino)-2-((3S,4R)-3-fluorotetrahydro-2H-pyran-4-ylamino)-9H-purin-9-yl)cyclohexanecarboxamide], the IC50 was < 0.25 µM.
